The values that follow come from US9969775B2, “CGRP antagonist peptides” (Ferring B.V., priority 2015, dated 2018).

Numbered stars: 1 amine (or outer) side, 2 acyl side, 3 side chain; on linkers, the order of the positions; unused ones are H or OH. Bridge positions count the residues as written; N and C are the ends. Square brackets hold non-standard residues; d marks the D form. Peptide text beside a SMILES is read from it. * marks the point of attachment. Phe(4-NHCONH2) = NC(=O)Nc1ccc(C[C@H](N)C(=O)O)cc1; Phe(3-CONH2) = NC(=O)c1cccc(C[C@H](N)C(=O)O)c1; Phe(2-CONH2) = NC(=O)c1ccccc1C[C@H](N)C(=O)O; X5 = O=C([C@H](Cc1ccc(CO)cc1)N[*:1])[*:2]; Phe(4-NH2) = Nc1ccc(C[C@H](N)C(=O)O)cc1; Picolinoyl(3,5-F2) = O=C(c1ncc(F)cc1F)*; Picolinoyl(5-F) = O=C(c1ccc(F)cn1)*; Orn(iPr) = CC(C)NCCC[C@H](N)C(=O)O; Oxazole2carbonyl = O=C(c1ncco1)*; 3Pal = N[C@@H](Cc1cccnc1)C(=O)O; Picolinoyl = O=C(c1ccccn1)*; ΔPro = O=C(O)[C@@H]1C=CCN1

Test [1] deals with T1, hCGRP receptor (CALCRL:RAMP1) (Homo sapiens, UniProt O60894+Q16602).
T1 construct: host or cells: GeneBLAzer CALCRL:RAMP1-CRE-bla Freestyle 293F
T1 sequence (Q16602 23-461): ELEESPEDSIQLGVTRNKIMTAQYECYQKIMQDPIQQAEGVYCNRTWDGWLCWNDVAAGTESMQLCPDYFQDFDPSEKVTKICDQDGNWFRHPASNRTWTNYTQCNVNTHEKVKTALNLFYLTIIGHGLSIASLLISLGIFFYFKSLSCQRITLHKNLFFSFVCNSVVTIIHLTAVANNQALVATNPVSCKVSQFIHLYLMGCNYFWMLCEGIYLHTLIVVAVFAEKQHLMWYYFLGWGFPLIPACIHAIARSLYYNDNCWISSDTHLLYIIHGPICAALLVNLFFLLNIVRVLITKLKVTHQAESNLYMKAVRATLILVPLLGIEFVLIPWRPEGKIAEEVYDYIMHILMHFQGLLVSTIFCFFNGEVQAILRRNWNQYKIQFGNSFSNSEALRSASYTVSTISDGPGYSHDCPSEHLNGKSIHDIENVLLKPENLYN
T1 sequence (O60894 27-148): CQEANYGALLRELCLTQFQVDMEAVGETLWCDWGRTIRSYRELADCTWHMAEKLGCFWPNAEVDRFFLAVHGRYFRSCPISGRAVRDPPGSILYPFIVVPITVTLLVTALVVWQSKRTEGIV
Description: CGRP receptor antagonist activity measured by cAMP assay (HTRF). It counts as cell-based. The conditions noted are these: agonist human α-CGRP; for Emax: % MPE: percent of the maximal possible effect, read-out: hCGRP-R Efficacy Antag (%) Ave; for IC50: GeneBLAzer CALCRL:RAMP1-CRE-bla Freestyle 293F cells, 30 minutes, read-out: hCGRP-R IC50 Ave.

The target in test [2] is T2, hAM2 receptor (CALCRL:RAMP3) (Homo sapiens, UniProt O60896+Q16602).
T2 construct: expressed in transfected cells; host or cells: GeneBLAzer CALCRL:RAMP3-CRE-bla Freestyle 293F
T2 sequence (Q16602 23-461): as the sequence (Q16602 23-461) above
T2 sequence (O60896 24-148): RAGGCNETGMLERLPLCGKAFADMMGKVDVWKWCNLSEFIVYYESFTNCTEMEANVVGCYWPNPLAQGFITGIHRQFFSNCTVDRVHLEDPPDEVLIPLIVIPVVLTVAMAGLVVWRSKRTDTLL
Nature of the test: AM2 receptor antagonist activity measured by cAMP assay (HTRF). Type of test: cell-based. The following applies: for Emax: % MPE: percent of the maximal possible effect, read-out: hAM2-R Efficacy Antag (%) Ave; for Emax / IC50: agonist human adrenomedullin; for IC50: GeneBLAzer CALCRL:RAMP3-CRE-bla Freestyle 293F cells, read-out: hAM2-R IC50 Ave; for selectivity ratio CGRP/AM2: selectivity ratio for hCGRP over hAM2, calculated from the IC50 values.
Description: Antagonist activity for the adrenomedullin receptor AM2 was determined using the method described in Example 6 above, with the following modifications. Instead of GeneBLAzer® CALCRL:RAMP1-CRE-bla Freestyle™ 293F cells, GeneBLAzer® CALCRL:RAMP3-CRE-bla Freestyle™ 293F cells were used to test activity at hAM2 receptors. The agonist was human adrenomedullin, instead of α-CGRP.
In Table 5, the selectivity ratio for hCGRP over hAM2 is calculated as hCGRP-R IC50/hAM2-R IC50.

For `CC(C)NCCC[C@@H]1NC(=O)[C@@H](NC(=O)[C@H](Cc2ccccc2C(N)=O)NC(=O)[C@H](NC(=O)c2ncco2)C(C)C)CSSC[C@@H](C(=O)N[C@@H](Cc2cccnc2)C(N)=O)NC(=O)[C@H](Cc2ccc(N)cc2)NC(=O)[C@@H]2C=CCN2C(=O)CNC(=O)[C@H](C(C)C)NC(=O)[C@H](CC(=O)O)NC1=O` [Compound 59, Oxazole-2-carbonyl-D-Val-Phe(2-Cbm)-c(Cys-Orn(iPr)-Asp-Val-Gly-Dhp-4Aph-Cys)-3Pal-NH2] (Oxazole2carbonyl-[dV][Phe(2-CONH2)]C[Orn(iPr)]DVG[ΔPro][Phe(4-NH2)]C[3Pal]-NH2; disulfide 3-10), in test [1], the Emax was 100% and the IC50 (in general, the concentration that inhibits the measured activity by half) is 0.17 nM. In test [2], the Emax was 99%, the IC50 is 467 nM and the “selectivity ratio CGRP/AM2” value is 2770.
As for `CC(C)NCCC[C@@H]1NC(=O)[C@@H](NC(=O)[C@H](Cc2ccccc2C(N)=O)NC(=O)[C@H](NC(=O)c2ncco2)C(C)C)CSSC[C@@H](C(=O)N[C@@H](Cc2cccnc2)C(N)=O)NC(=O)[C@H](Cc2ccc(NC(N)=O)cc2)NC(=O)[C@@H]2C=CCN2C(=O)CNC(=O)[C@H](C(C)C)NC(=O)[C@H](CC(=O)O)NC1=O` [Compound 60, Oxazole-2-carbonyl-D-Val-Phe(2-Cbm)-c(Cys-Orn(iPr)-Asp-Val-Gly-Dhp-4Uph-Cys)-3Pal-NH2] (Oxazole2carbonyl-[dV][Phe(2-CONH2)]C[Orn(iPr)]DVG[ΔPro][Phe(4-NHCONH2)]C[3Pal]-NH2; disulfide 3-10), in test [1], the Emax is 100% and the IC50 was 0.12 nM. Besides, in test [2], the Emax was 100%, the IC50 is 444 nM and the “selectivity ratio CGRP/AM2” value is listed as 3759.
For the molecule `CC(C)NCCC[C@@H]1NC(=O)[C@@H](NC(=O)[C@H](Cc2ccc(O)cc2)NC(=O)[C@H](NC(=O)c2ccc(F)cn2)C(C)C)CSSC[C@@H](C(=O)N[C@@H](Cc2cccnc2)C(N)=O)NC(=O)[C@H](Cc2ccc(CO)cc2)NC(=O)[C@@H]2CCCN2C(=O)CNC(=O)[C@H](C(C)C)NC(=O)[C@H](CC(=O)O)NC1=O` [Compound 61, Picolinoyl(5-F)-D-Val-Tyr-c(Cys-Orn(iPr)-Asp-Val-Gly-Pro-Phe(4-CH2OH)-Cys)-3Pal-NH2] ({Picolinoyl(5-F)}-[dV]YC[Orn(iPr)]DVGP[X5]C[3Pal]-NH2; disulfide 3-10), in test [1], the Emax is 100% and the IC50 is 0.1 nM. Further, in test [2], the Emax is 100%, the IC50 is 89 nM and the “selectivity ratio CGRP/AM2” value was 934.
On to `CC(C)NCCC[C@@H]1NC(=O)[C@@H](NC(=O)[C@H](Cc2ccc(O)cc2)NC(=O)[C@H](NC(=O)c2ncc(F)cc2F)C(C)C)CSSC[C@@H](C(=O)N[C@@H](Cc2cccnc2)C(N)=O)NC(=O)[C@H](Cc2ccccc2)NC(=O)[C@@H]2CCCN2C(=O)CNC(=O)[C@H](C(C)C)NC(=O)[C@H](CC(=O)O)NC1=O` [Compound 62, Picolinoyl(3,5-F2)-D-Val-Tyr-c(Cys-Orn(iPr)-Asp-Val-Gly-Pro-Phe-Cys)-3Pal-NH2] ({Picolinoyl(3,5-F2)}-[dV]YC[Orn(iPr)]DVGPFC[3Pal]-NH2; disulfide 3-10), for which, in test [1], the Emax was 100% and the IC50 was 0.14 nM. Besides, in test [2], the Emax was 100%, the IC50 was 85 nM and the “selectivity ratio CGRP/AM2” value was 592.
Consider `CC(C)NCCC[C@@H]1NC(=O)[C@@H](NC(=O)[C@H](Cc2ccccc2C(N)=O)NC(=O)[C@H](NC(=O)c2ccc(F)cn2)C(C)C)CSSC[C@@H](C(=O)N[C@@H](Cc2cccnc2)C(N)=O)NC(=O)[C@H](Cc2ccc(CO)cc2)NC(=O)[C@@H]2C=CCN2C(=O)CNC(=O)[C@H](C(C)C)NC(=O)[C@H](CC(=O)O)NC1=O` [Compound 63, Picolinoyl(5-F)-D-Val-Phe(2-Cbm)-c(Cys-Orn(iPr)-Asp-Val-Gly-Dhp-Phe(4-CH2OH)-Cys)-3Pal-NH2] ({Picolinoyl(5-F)}-[dV][Phe(2-CONH2)]C[Orn(iPr)]DVG[ΔPro][X5]C[3Pal]-NH2; disulfide 3-10), for which, in test [1], the Emax is 101% and the IC50 is 0.1 nM. In addition, in test [2], the Emax is 98%, the IC50 is 85 nM and the “selectivity ratio CGRP/AM2” value was 848.
The matching figures for `CC(C)NCCC[C@@H]1NC(=O)[C@@H](NC(=O)[C@H](Cc2ccccc2C(N)=O)NC(=O)[C@H](NC(=O)c2ncco2)C(C)C)CSSC[C@@H](C(=O)N[C@@H](Cc2cccnc2)C(N)=O)NC(=O)[C@H](Cc2ccc(CO)cc2)NC(=O)[C@@H]2CCCN2C(=O)CNC(=O)[C@H](C(C)C)NC(=O)[C@H](CC(=O)O)NC1=O` [Compound 64, Oxazole-2-carbonyl-D-Val-Phe(2-Cbm)-c(Cys-Orn(iPr)-Asp-Val-Gly-Pro-Phe(4-CH2OH)-Cys)-3Pal-NH2] (Oxazole2carbonyl-[dV][Phe(2-CONH2)]C[Orn(iPr)]DVGP[X5]C[3Pal]-NH2; disulfide 3-10): 101%, 0.12 nM, 99%, 1250 nM and 10594.
The matching figures for `CC(C)NCCC[C@@H]1NC(=O)[C@@H](NC(=O)[C@H](Cc2ccccc2C(N)=O)NC(=O)[C@H](NC(=O)c2ncco2)C(C)C)CSSC[C@@H](C(=O)N[C@@H](Cc2cccnc2)C(N)=O)NC(=O)[C@H](Cc2cccc(C(N)=O)c2)NC(=O)[C@@H]2C=CCN2C(=O)CNC(=O)[C@H](C(C)C)NC(=O)[C@H](CC(=O)O)NC1=O` [Compound 65, Oxazole-2-carbonyl-D-Val-Phe(2-Cbm)-c(Cys-Orn(iPr)-Asp-Val-Gly-Dhp-Phe(3-Cbm)-Cys)-3Pal-NH2] (Oxazole2carbonyl-[dV][Phe(2-CONH2)]C[Orn(iPr)]DVG[ΔPro][Phe(3-CONH2)]C[3Pal]-NH2; disulfide 3-10): 101%, 0.06 nM, 100%, 318 nM and 5492.
Turning to `CC(C)NCCC[C@@H]1NC(=O)[C@@H](NC(=O)[C@H](Cc2ccccc2C(N)=O)NC(=O)[C@H](NC(=O)c2ccc(F)cn2)C(C)C)CSSC[C@@H](C(=O)N[C@@H](Cc2cccnc2)C(N)=O)NC(=O)[C@H](Cc2ccccc2C(N)=O)NC(=O)[C@@H]2C=CCN2C(=O)CNC(=O)[C@H](C(C)C)NC(=O)[C@H](CC(=O)O)NC1=O` [Compound 66, Picolinoyl(5-F)-D-Val-Phe(2-Cbm)-c(Cys-Orn(iPr)-Asp-Val-Gly-Dhp-Phe(2-Cbm)-Cys)-3Pal-NH2] ({Picolinoyl(5-F)}-[dV][Phe(2-CONH2)]C[Orn(iPr)]DVG[ΔPro][Phe(2-CONH2)]C[3Pal]-NH2; disulfide 3-10), in test [1], the Emax is 101% and the IC50 is 0.08 nM. For the same molecule, in test [2], the Emax was 100%, the IC50 was 84 nM and the “selectivity ratio CGRP/AM2” value is reported as 1027.
For the molecule `CC(C)NCCC[C@@H]1NC(=O)[C@@H](NC(=O)[C@H](Cc2ccc(O)cc2)NC(=O)[C@H](NC(=O)c2ncco2)C(C)C)CSSC[C@@H](C(=O)N[C@@H](Cc2cccnc2)C(N)=O)NC(=O)[C@H](Cc2cccc(C(N)=O)c2)NC(=O)[C@@H]2C=CCN2C(=O)CNC(=O)[C@H](C(C)C)NC(=O)[C@H](CC(=O)O)NC1=O` [Compound 67, Oxazole-2-carbonyl-D-Val-Tyr-c(Cys-Orn(iPr)-Asp-Val-Gly-Dhp-Phe(3-Cbm)-Cys)-3Pal-NH2] (Oxazole2carbonyl-[dV]YC[Orn(iPr)]DVG[ΔPro][Phe(3-CONH2)]C[3Pal]-NH2; disulfide 3-10), in test [1], the Emax is 101% and the IC50 is 0.09 nM. Moreover, in test [2], the Emax is 99%, the IC50 was 103 nM and the “selectivity ratio CGRP/AM2” value is on record as 1094.
Taken in the same sequence, the figures for `CC(C)NCCC[C@@H]1NC(=O)[C@@H](NC(=O)[C@H](Cc2ccc(O)cc2)NC(=O)[C@H](NC(=O)c2ccc(F)cn2)C(C)C)CSSC[C@@H](C(=O)N[C@@H](Cc2cccnc2)C(N)=O)NC(=O)[C@H](Cc2cccc(C(N)=O)c2)NC(=O)[C@@H]2C=CCN2C(=O)CNC(=O)[C@H](C(C)C)NC(=O)[C@H](CC(=O)O)NC1=O` [Compound 68, Picolinoyl(5-F)-D-Val-Tyr-c(Cys-Orn(iPr)-Asp-Val-Gly-Dhp-Phe(3-Cbm)-Cys)-3Pal-NH2] ({Picolinoyl(5-F)}-[dV]YC[Orn(iPr)]DVG[ΔPro][Phe(3-CONH2)]C[3Pal]-NH2; disulfide 3-10) were 101%, 0.06 nM, 100%, 18 nM and 300.
For `CC(C)NCCC[C@@H]1NC(=O)[C@@H](NC(=O)[C@H](Cc2ccc(O)cc2)NC(=O)[C@H](NC(=O)c2ccccn2)C(C)C)CSSC[C@@H](C(=O)N[C@@H](Cc2cccnc2)C(N)=O)NC(=O)[C@H](Cc2ccc(CO)cc2)NC(=O)[C@@H]2C=CCN2C(=O)CNC(=O)[C@H](C(C)C)NC(=O)[C@H](CC(=O)O)NC1=O` [Compound 69, Picolinoyl-D-Val-Tyr-c(Cys-Orn(iPr)-Asp-Val-Gly-Dhp-Phe(4-CH2OH)-Cys)-3Pal-NH2] (Picolinoyl-[dV]YC[Orn(iPr)]DVG[ΔPro][X5]C[3Pal]-NH2; disulfide 3-10), in test [1], the Emax is 100% and the IC50 was 0.13 nM. Also, in test [2], the Emax is 100%, the IC50 is 64 nM and the “selectivity ratio CGRP/AM2” value was 497.
